Laboratory results as given in ChEMBL document CHEMBL1152182, “Synthesis and structure-activity relationship of 7-azaindole piperidine derivatives as CCR2 antagonists” (Bioorg Med Chem Lett, 2008).
Blank lines part the entries; values can stand above or below the compound they belong to.

Experiments:
[1] = target: C-C chemokine receptor type 2 (Homo sapiens, UniProt P41597); assay: Antagonist activity at human CCR2; type: functional
[2] = target: T1, Cytochrome P450 3A4 (Homo sapiens, UniProt P08684); assay: Inhibition of human CYP3A4 using dibenzylfluorescein as substrate; type: ADME
T1 sequence (P08684 whole entry): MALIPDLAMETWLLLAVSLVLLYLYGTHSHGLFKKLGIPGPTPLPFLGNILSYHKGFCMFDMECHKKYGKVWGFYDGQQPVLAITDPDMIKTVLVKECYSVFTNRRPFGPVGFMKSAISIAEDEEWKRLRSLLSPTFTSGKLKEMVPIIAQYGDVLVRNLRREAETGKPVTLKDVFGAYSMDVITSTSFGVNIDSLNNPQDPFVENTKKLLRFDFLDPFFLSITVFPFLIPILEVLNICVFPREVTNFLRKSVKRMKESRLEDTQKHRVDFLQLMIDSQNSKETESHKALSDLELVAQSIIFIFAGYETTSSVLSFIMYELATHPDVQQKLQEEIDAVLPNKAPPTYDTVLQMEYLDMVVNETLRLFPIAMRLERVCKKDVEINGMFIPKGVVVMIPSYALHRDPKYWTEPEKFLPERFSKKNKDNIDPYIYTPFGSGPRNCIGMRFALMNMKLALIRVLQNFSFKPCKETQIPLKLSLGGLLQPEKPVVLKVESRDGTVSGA

[3] = target: T2, Cytochrome P450 1A2 (Homo sapiens, UniProt P05177); assay: Inhibition of human CYP1A2; type: ADME
T2 sequence (P05177 whole entry): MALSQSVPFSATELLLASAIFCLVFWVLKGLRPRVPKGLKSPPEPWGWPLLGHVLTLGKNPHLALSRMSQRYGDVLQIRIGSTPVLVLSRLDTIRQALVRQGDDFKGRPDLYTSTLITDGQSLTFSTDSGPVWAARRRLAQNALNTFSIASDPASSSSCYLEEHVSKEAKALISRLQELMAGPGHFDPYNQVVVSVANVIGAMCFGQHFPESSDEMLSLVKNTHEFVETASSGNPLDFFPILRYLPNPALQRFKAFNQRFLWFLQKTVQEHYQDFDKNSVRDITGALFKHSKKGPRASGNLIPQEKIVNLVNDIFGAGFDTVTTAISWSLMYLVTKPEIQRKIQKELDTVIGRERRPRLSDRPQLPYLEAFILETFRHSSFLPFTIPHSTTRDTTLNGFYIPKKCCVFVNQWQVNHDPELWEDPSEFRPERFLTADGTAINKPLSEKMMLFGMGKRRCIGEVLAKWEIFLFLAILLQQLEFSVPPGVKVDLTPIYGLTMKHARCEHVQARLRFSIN

[4] = target: Cytochrome P450 2D6 (Homo sapiens, UniProt P10635); assay: Inhibition of human CYP2D6; type: ADME
Chain of Cytochrome P450 2D6 (P10635 whole entry): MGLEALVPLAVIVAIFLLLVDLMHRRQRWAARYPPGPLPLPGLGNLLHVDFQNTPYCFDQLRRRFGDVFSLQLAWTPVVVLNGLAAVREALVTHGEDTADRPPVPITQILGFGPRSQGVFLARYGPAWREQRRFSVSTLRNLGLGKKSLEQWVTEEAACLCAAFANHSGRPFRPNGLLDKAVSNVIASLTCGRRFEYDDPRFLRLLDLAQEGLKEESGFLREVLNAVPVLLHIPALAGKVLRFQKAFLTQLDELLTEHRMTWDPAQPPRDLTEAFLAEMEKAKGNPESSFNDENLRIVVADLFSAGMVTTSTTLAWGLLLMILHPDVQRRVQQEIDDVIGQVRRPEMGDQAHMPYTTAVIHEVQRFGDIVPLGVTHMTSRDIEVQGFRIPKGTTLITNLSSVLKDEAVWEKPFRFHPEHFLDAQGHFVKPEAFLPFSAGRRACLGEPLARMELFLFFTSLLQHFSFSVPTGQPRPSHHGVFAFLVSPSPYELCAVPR

[5] = Oral bioavailability in rat at 10 mg/kg; type: ADME, organism-based; conditions: in vivo
[6] = Cmax in rat at 10 mg/kg, po; type: ADME, organism-based; design: dose 10 mg/kg, route oral; conditions: in vivo
[7] = Half life in rat at 10 mg/kg, po; type: ADME, organism-based; design: dose 10 mg/kg, route oral; conditions: in vivo
[8] = target: Cytochrome P450 2C19 (Homo sapiens, UniProt P33261); assay: Inhibition of human CYP2C19; type: ADME
Chain of Cytochrome P450 2C19 (P33261 whole entry): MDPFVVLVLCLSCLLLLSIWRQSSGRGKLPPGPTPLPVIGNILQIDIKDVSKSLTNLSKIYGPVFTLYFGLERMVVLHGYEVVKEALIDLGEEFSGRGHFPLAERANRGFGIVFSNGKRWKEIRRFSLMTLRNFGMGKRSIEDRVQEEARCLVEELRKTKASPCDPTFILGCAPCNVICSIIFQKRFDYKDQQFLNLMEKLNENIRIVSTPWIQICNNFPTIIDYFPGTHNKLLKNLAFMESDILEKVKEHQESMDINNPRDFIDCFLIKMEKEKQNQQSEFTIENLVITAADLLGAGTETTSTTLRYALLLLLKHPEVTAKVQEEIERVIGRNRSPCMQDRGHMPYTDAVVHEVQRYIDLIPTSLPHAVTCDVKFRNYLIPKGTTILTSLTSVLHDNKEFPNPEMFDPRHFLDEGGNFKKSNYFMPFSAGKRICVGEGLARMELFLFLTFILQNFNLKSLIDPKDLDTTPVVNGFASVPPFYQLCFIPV

[9] = target: T1, Cytochrome P450 3A4; assay: Inhibition of human CYP3A4 using 7-benzyloxyquinoline as substrate; type: ADME
[10] = target: T1, Cytochrome P450 3A4; assay: Inhibition of human CYP3A4 using 7-benzyloxy-4-trifluoromethylcoumarin as substrate; type: ADME

Chain of C-C chemokine receptor type 2 (P41597 whole entry): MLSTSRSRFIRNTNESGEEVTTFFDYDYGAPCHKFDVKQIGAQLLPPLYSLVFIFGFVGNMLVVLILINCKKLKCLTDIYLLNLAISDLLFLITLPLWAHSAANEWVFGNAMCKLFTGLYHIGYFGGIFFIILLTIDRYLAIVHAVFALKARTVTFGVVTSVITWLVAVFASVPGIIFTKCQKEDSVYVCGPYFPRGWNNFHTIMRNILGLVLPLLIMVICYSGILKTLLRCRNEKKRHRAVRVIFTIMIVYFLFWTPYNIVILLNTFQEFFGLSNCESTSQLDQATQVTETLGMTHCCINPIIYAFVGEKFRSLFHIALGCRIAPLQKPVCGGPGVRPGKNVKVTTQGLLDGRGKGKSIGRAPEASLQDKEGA

SMILES: O=C(O)C(C1CCN(C(=O)/C=C/c2cc(F)c(F)c(F)c2)CC1)N1CCC(c2c[nH]c3ncccc23)CC1 (stereo unspecified)
- IC50 [1]: 17 nM

SMILES: O=C(/C=C/c1cc(F)cc(F)c1)N1CCC([C@@H](CO)N2CCC(c3c[nH]c4ncccc34)CC2)CC1
- IC50 [2]: 20600 nM
- IC50 [3]: > 40000 nM
- IC50 [4]: 13300 nM
- bioavailability [5]: 36%
- IC50 [1]: 4 nM
- Cmax [6]: 341 ng/mL
- half-life [7]: 5.6 h
- IC50 [8]: 27100 nM
- IC50 [9]: > 40000 nM
- IC50 [10]: 25200 nM

SMILES: O=C(/C=C/c1cc(F)cc(F)c1)N1CCC(C(CO)N2CCC(c3c[nH]c4ncccc34)CC2)CC1 (racemic)
- IC50 [1]: 6 nM

More lines, in order of falling IC50 [1], values ahead:

- IC50 [1]: 1300 nM
SMILES: O=C(/C=C/c1cc(F)c(F)c(F)c1)N1CCC(CN2CCC(c3c[nH]c4ncccc34)CC2)CC1

- IC50 [1]: 14 nM
SMILES: O=C(Nc1ccc(Cl)c(Cl)c1)N1CCC(C(CO)N2CCC(c3c[nH]c4ncccc34)CC2)CC1 (racemic)

- IC50 [1]: 7 nM
SMILES: O=C(/C=C/c1cc(F)c(F)c(F)c1)N1CCC(C(CO)N2CCC(c3c[nH]c4ncccc34)CC2)CC1 (racemic)

- IC50 [1]: 6 nM
SMILES: O=C(/C=C/c1ccc(Cl)c(Cl)c1)N1CCC(C(CO)N2CCC(c3c[nH]c4ncccc34)CC2)CC1 (racemic)
